Assay results as given in patent US12559506B2, “Indazole based compounds and associated methods of use” (Arvinas Operations, Inc., priority 2021, dated 2026).

Experiments:
G2019S LRRK2 = target: T1, G2019S LRRK2 (Homo sapiens, UniProt Q5S007, G2019S); assay: LRRK2 degradation assay, HiBit-tagged G2019S LRRK2 expressed from plasmid in HEK293 cells (Nano-Glo Dual-Luciferase); type: cell-based; settings: HiBit-tagged G2019S LRRK2 in HEK293 cells, 24 hours
T1 construct: expressed in transfected cells; host or cells: HEK293 (ATCC CRL-1573), transient transfection, mammalian expression vector with ubiquitin promoter
T1 sequence (Q5S007 whole entry G2019S): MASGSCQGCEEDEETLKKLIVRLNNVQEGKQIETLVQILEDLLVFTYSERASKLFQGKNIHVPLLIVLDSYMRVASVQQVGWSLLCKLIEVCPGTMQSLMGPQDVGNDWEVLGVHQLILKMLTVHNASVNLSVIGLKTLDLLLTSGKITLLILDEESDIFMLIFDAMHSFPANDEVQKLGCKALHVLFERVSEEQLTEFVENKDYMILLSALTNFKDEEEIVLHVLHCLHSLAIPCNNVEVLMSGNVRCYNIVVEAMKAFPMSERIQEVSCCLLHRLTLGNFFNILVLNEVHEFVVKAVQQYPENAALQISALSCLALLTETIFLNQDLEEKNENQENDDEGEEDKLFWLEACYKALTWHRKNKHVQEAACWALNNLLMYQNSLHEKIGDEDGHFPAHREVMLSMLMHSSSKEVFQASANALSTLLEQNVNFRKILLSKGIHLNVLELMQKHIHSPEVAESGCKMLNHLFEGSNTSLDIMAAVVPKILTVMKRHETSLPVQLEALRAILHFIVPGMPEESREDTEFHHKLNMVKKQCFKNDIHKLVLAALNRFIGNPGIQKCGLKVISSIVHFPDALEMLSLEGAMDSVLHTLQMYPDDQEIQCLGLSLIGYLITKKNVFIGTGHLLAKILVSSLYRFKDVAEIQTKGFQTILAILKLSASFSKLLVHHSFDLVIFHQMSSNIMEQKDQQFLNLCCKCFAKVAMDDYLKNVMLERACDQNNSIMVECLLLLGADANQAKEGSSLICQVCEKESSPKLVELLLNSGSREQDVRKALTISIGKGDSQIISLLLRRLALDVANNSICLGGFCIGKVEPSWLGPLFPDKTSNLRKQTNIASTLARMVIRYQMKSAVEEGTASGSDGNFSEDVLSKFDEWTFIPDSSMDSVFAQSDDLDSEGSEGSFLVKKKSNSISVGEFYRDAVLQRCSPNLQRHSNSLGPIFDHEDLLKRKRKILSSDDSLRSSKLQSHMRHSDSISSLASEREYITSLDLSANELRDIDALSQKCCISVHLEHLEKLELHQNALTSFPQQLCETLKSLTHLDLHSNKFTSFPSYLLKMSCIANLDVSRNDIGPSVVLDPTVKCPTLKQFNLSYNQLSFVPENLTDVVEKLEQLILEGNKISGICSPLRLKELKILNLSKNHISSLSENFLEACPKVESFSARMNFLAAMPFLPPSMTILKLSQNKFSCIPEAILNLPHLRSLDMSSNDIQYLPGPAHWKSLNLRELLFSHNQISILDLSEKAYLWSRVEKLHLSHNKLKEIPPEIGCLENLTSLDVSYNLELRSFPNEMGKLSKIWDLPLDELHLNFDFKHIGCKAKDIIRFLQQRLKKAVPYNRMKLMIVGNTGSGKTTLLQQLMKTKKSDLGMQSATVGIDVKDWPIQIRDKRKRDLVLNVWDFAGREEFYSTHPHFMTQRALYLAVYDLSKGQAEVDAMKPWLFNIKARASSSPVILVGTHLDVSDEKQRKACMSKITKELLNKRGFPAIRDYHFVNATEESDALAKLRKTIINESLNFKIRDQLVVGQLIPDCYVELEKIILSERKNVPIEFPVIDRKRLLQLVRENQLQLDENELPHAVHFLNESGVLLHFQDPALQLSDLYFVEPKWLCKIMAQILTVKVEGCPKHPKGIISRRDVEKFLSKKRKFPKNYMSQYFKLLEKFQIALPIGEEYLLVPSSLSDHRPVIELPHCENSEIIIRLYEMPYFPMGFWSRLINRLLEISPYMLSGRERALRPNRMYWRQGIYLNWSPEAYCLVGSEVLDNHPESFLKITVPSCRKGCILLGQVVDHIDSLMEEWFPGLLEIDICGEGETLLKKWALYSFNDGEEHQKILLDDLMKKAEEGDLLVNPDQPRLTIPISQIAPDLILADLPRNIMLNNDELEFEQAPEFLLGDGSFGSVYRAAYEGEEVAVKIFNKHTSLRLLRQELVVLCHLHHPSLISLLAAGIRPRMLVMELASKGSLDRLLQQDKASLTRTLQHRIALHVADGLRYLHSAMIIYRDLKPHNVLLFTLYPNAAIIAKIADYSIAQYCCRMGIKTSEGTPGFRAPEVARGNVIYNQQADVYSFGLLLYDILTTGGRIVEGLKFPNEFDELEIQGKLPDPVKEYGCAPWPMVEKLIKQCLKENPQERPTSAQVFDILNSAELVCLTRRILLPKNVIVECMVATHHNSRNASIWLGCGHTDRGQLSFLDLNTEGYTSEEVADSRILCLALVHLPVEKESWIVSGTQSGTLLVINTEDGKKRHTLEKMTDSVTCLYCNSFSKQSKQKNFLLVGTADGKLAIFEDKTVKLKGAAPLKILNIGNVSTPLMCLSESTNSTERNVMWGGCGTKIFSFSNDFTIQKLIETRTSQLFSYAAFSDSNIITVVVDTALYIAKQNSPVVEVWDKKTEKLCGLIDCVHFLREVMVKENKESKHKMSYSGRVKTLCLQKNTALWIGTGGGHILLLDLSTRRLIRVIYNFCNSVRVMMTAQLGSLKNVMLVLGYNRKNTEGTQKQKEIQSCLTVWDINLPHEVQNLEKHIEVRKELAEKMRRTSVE
Text: (§1) Exemplary Assay for Testing LRRK2 Degradation Driven by Exemplary Hetero-Bifunctional Compounds Designed to Target LRRK2
(§2) The assay measures the degradation of wildtype and G2019S LRRK2 tagged with a HiBit tag on the C-terminus of the protein that was expressed from a mammalian expression vector, driven by the ubiquitin promoter in HEK293 cells. Each compound dose-response was repeated on two separate days, on three separate plates each day.
(§3) Plasmid Preparation. Transfection mixes were assembled as follows and incubated for 30 minutes at room temperature. In a 15 mL tube, 5.25 mL Opti-MEM (no additions) was mixed with 17 μL Firefly Luciferase plasmid at 1 μg/μL and 158 μL WT plasmid DNA at 1 μg/μL (175 μg total DNA) were mixed by flicking. In a new 15 mL tube, 5.25 mL OptiMEM was mixed with 17 μL Firefly Luciferase plasmid at 1 μg/μL and 158 μL G2019S plasmid DNA at 1 μg/μL (175 μg total DNA) were mixed by flicking. X-tremeGene HP was mixed thoroughly using a vortex. Next, 175 μL was added to each tube and flicked to mix. Both tubes were left to incubate for 30 minutes at room temperature.
(§4) While the transfection mixes were incubating, HEK293 cells (acquired from ATCC; ATCC CRL-1573) were harvested with trypsin. Once cells are detached, the cells were resuspended in 12 mL OptiMEM+5% FBS and transferred to a 50 mL tube. The cells were mixed well and counted. Using OptiMEM+5% FBS, the cells were diluted in two 250 mL conical tubes at 0.71×10^6 cells/mL in 70 mL. One tube was labeled “WT” and the other “G2019S”. The WT and G2019S transfection mixes were added dropwise to the corresponding 250 mL tubes. The tubes were mixed first by pipetting then by swirling. The tubes were incubated at room temperature for at least 5 minutes.
(§5) Each tube was swirled before dispensing and after every three plates. Seventy microliters of cells were dispensed with WT or G2019S DNA to seven plates each. Three plates of each were tested with compound plate one (preparation described below) and three plates of each were tested with compound plate two (preparation described below). The first plate from each set served as a “prime” plate and was not used to test compounds. Each plate was incubated in the hood for 10 minutes before placing in the 37° C. incubator for 24 hours.
(§6) Preparation of Compound and Assay Plates. Two compound plates were made using 96 well polypropylene plates. Compounds were made up at 10 mM and were diluted to 1 mM in 30 μL. Each dose response curve included a well of DMSO, as a negative control and for normalization, and a well of 0.5 μM of Compound 4 as a positive control. In addition to seven test compounds, each plate also included a dose response of Compound 4. The compound plates were spun down along at 1200 rpm for 2 minutes.
(§7) The two compound plates were then mixed and 2 μL was diluted in intermediate plates having 248 μL of Opti-Mem in each well. Next, 10 μL diluted compounds from the intermediate plates were added to each test plate (three WT and three G2019S plates per compound plate for a total of 12 assay plates). The plates were incubated for 24 hours at 37° C.
(§8) All assay plates and all Nano-Glo Dual-Luciferase Reporter Assay System components (except for the DLR substrate) were equilibrated to room temperature. Next, the luciferase buffer was mixed with the lyophilized amber bottle until fully dissolved, and 75 μL of the luciferase mixture was added to each well of each assay plate. The assay plates were incubated for 10 minutes at room temperature with shaking for at least 5 minutes, and then read on a plate reader.
(§9) Developing Plates and Analyzing Data. One milliliter of DLR substrate and 1 mL LgBiT Protein were added to the Stop and Glo buffer, and 75 μL of the mixture was added to each well of each plate. Optically clear seals were added to each plate and each plate was incubated for 20 minutes with shaking for at least 10 minutes, and then read on a plate reader. […]

wildtype LRRK2 = target: T2, wildtype LRRK2 (Homo sapiens, UniProt Q5S007); assay: LRRK2 degradation assay, HiBit-tagged wildtype LRRK2 expressed from plasmid in HEK293 cells (Nano-Glo Dual-Luciferase); type: cell-based; settings: HiBit-tagged wildtype LRRK2 in HEK293 cells, 24 hours; for Dmax: read-out: **WT Dmax (%); for DC50: read-out: *WT DC50
T2 construct: expressed in transfected cells; host or cells: HEK293 (ATCC CRL-1573), transient transfection, mammalian expression vector with ubiquitin promoter
T2 sequence (Q5S007 whole entry): as the sequence (Q5S007 whole entry G2019S) above, with S2019G counted along it
Text: as §1, §2, §3, §4, §5, §6, §7, §8, §9

DC50 (G2019S LRRK2) [nM] | Dmax (G2019S LRRK2) [%] | Dmax (wildtype LRRK2) [%] | DC50 (wildtype LRRK2) [nM] | Compound
< 10 | < 50 | < 50 | < 10 | C[C@H]1CN(c2cc(-c3n[nH]c4ccc(OC5(C)CC5)cc34)ccn2)CCN1CC1(F)CCN(CC2CCN(c3ccc4c(c3)C(=O)N(C3CCC(=O)NC3=O)C4=O)CC2)CC1 (stereo partly drawn) [Compound 81, 2-(2,6-dioxopiperidin-3-yl)-5-{4-[(4-fluoro-4-{[(2S)-2-methyl-4-{4-[5-(1-methylcyclopropoxy)-1H-indazol-3-yl]pyridin-2-yl}piperazin-1-yl]methyl}piperidin-1-yl)methyl]piperidin-1-yl}-2,3-dihydro-1H-isoindole-1,3-dione]
10 to 50 | 50 to 70 | 50 to 70 | 10 to 50 | CC1(Oc2ccc3[nH]nc(-c4ccnc(N5CCC(CN6CCC(F)(CN7CCN(c8ccc9c(c8)C(=O)N(C8CCC(=O)NC8=O)C9=O)CC7)CC6)CC5)c4)c3c2)CC1 (stereo not drawn) [Compound 82, 2-(2,6-dioxo-3-piperidyl)-5-[4-[[4-fluoro-1-[[1-[4-[5-(1-methylcyclopropoxy)-1H-indazol-3-yl]-2-pyridyl]-4-piperidyl]methyl]-4-piperidyl]methyl]piperazin-1-yl]isoindoline-1,3-dione]
< 10 | ≥ 70 | 50 to 70 | < 10 | CC1(Oc2ccc3[nH]nc(-c4cc(N5CCC(CN6CCC(F)(CN7CCN(c8ccc9c(c8)C(=O)N(C8CCC(=O)NC8=O)C9=O)CC7)CC6)CC5)ncn4)c3c2)CC1 (stereo not drawn) [Compound 83, 2-(2,6-dioxo-3-piperidyl)-5-[4-[[4-fluoro-1-[[1-[6-[5-(1-methylcyclopropoxy)-1H-indazol-3-yl]pyrimidin-4-yl]-4-piperidyl]methyl]-4-piperidyl]methyl]piperazin-1-yl]isoindoline-1,3-dione]
< 10 | < 50 | 50 to 70 | < 10 | CC1(Oc2ccc3n[nH]c(-c4cc(N5CCN(C(=O)C6CCN(CC7CCN(c8ccc9c(c8)C(=O)N(C8CCC(=O)NC8=O)C9=O)CC7)CC6)CC5)ncn4)c3c2)CC1 (stereo not drawn) [Compound 84, 2-(2,6-dioxo-3-piperidyl)-5-[4-[[4-[4-[6-[5-(1-methylcyclopropoxy)-2H-indazol-3-yl]pyrimidin-4-yl]piperazine-1-carbonyl]-1-piperidyl]methyl]-1-piperidyl]isoindoline-1,3-dione]
< 10 | < 50 | < 50 | < 10 | CC1(Oc2ccc3n[nH]c(-c4ccnc(N5CCN(C(=O)C6CCN(CC7CCN(c8ccc9c(c8)C(=O)N(C8CCC(=O)NC8=O)C9=O)CC7)CC6)CC5)c4)c3c2)CC1 (stereo not drawn) [Compound 85, 2-(2,6-dioxo-3-piperidyl)-5-[4-[[4-[4-[4-[5-(1-methylcyclopropoxy)-2H-indazol-3-yl]-2-pyridyl]piperazine-1-carbonyl]-1-piperidyl]methyl]-1-piperidyl]isoindoline-1,3-dione]
< 10 | 50 to 70 | 50 to 70 | < 10 | CC1(Oc2ccc3[nH]nc(-c4cc(N5CCC(C(=O)N6CCC(CN7CCN(c8ccc9c(c8)C(=O)N(C8CCC(=O)NC8=O)C9=O)CC7)CC6)CC5)ncn4)c3c2)CC1 (stereo not drawn) [Compound 86, 2-(2,6-dioxopiperidin-3-yl)-5-(4-{[1-(1-{6-[5-(1-methylcyclopropoxy)-1H-indazol-3-yl]pyrimidin-4-yl}piperidine-4-carbonyl)piperidin-4-yl]methyl}piperazin-1-yl)-2,3-dihydro-1H-isoindole-1,3-dione]
< 10 | < 50 | < 50 | < 10 | CC1(Oc2ccc3[nH]nc(-c4ccnc(N5CCC(C(=O)N6CCC(CN7CCN(c8ccc9c(c8)C(=O)N(C8CCC(=O)NC8=O)C9=O)CC7)CC6)CC5)c4)c3c2)CC1 (stereo not drawn) [Compound 87, 2-(2,6-dioxo-3-piperidyl)-5-[4-[[1-[1-[4-[5-(1-methylcyclopropoxy)-1H-indazol-3-yl]-2-pyridyl]piperidine-4-carbonyl]-4-piperidyl]methyl]piperazin-1-yl]isoindoline-1,3-dione]
10 to 50 | 50 to 70 | < 50 | 10 to 50 | CC1(Oc2ccc3[nH]nc(-c4cc(N5CCC(C(=O)N6CCC(CC7CCN(c8ccc9c(c8)C(=O)N(C8CCC(=O)NC8=O)C9=O)CC7)CC6)CC5)ncn4)c3c2)CC1 (stereo not drawn) [Compound 88, 2-(2,6-dioxo-3-piperidyl)-5-[4-[[1-[1-[6-[5-(1-methylcyclopropoxy)-1H-indazol-3-yl]pyrimidin-4-yl]piperidine-4-carbonyl]-4-piperidyl]methyl]-1-piperidyl]isoindoline-1,3-dione]
10 to 50 | < 50 | < 50 | 10 to 50 | CC1(Oc2ccc3[nH]nc(-c4ccnc(N5CCC(C(=O)N6CCC(CC7CCN(c8ccc9c(c8)C(=O)N(C8CCC(=O)NC8=O)C9=O)CC7)CC6)CC5)c4)c3c2)CC1 (stereo not drawn) [Compound 89, 2-(2,6-dioxopiperidin-3-yl)-5-(4-{[1-(1-{4-[5-(1-methylcyclopropoxy)-1H-indazol-3-yl]pyridin-2-yl}piperidine-4-carbonyl)piperidin-4-yl]methyl}piperidin-1-yl)-2,3-dihydro-1H-isoindole-1,3-dione]
< 10 | 50 to 70 | < 50 | < 10 | CC1(Oc2ccc3[nH]nc(-c4cc(N5CCN(CC6CCN(C(=O)C7CCN(c8ccc9c(c8)C(=O)N(C8CCC(=O)NC8=O)C9=O)CC7)CC6)CC5)ncn4)c3c2)CC1 (stereo not drawn) [Compound 90, 2-(2,6-dioxopiperidin-3-yl)-5-(4-{4-[(4-{6-[5-(1-methylcyclopropoxy)-1H-indazol-3-yl]pyrimidin-4-yl}piperazin-1-yl)methyl]piperidine-1-carbonyl}piperidin-1-yl)-2,3-dihydro-1H-isoindole-1,3-dione]
< 10 | 50 to 70 | 50 to 70 | < 10 | CC1(Oc2ccc3[nH]nc(-c4ccnc(N5CCN(CC6CCN(C(=O)C7CCN(c8ccc9c(c8)C(=O)N(C8CCC(=O)NC8=O)C9=O)CC7)CC6)CC5)c4)c3c2)CC1 (stereo not drawn) [Compound 91, 2-(2,6-dioxopiperidin-3-yl)-5-(4-{4-[(4-{4-[5-(1-methylcyclopropoxy)-1H-indazol-3-yl]pyridin-2-yl}piperazin-1-yl)methyl]piperidine-1-carbonyl}piperidin-1-yl)-2,3-dihydro-1H-isoindole-1,3-dione]
10 to 50 | 50 to 70 | 50 to 70 | < 10 | CC1(Oc2ccc3[nH]nc(-c4cc(N5CCC(CC6CCN(C(=O)C7CCN(c8ccc9c(c8)C(=O)N(C8CCC(=O)NC8=O)C9=O)CC7)CC6)CC5)ncn4)c3c2)CC1 (stereo not drawn) [Compound 92, 2-(2,6-dioxo-3-piperidyl)-5-[4-[4-[[1-[6-[5-(1-methylcyclopropoxy)-1H-indazol-3-yl]pyrimidin-4-yl]-4-piperidyl]methyl]piperidine-1-carbonyl]-1-piperidyl]isoindoline-1,3-dione]
